From ChEMBL document CHEMBL1121689, “A dopamine receptor model and its application in the design of a new class of rigid pyrrolo[2,3-g]isoquinoline antipsychotics” (1981) come the findings set out here.

In assay [1] the test system is Rattus norvegicus. The assay is described as follows: Dose required for producing 50% block of avoidance responding in rats after peroral administration. Type of assay: functional.
For assay [2], the system named is Rattus norvegicus. Nature of the assay: Dose required for producing 20% block of escape responding in rats after peroral administration. The assay is classed as functional.

For `CCc1c(C)[nH]c2c1C(=O)[C@@H]1CN(C)CC[C@H]1C2.Cl`, the ABD50 in the assay with Rattus norvegicus [1] is greater than 6 mg/kg.

As to `CCc1c(C)[nH]c2c1C(=O)[C@H]1CN(C)CC[C@@H]1C2.Cl`, in the assay on Rattus norvegicus [1], the ABD50 was found to be 0.49 mg/kg. Moreover, in the assay with Rattus norvegicus [2], the EBD20 was 3.6 mg/kg.

For the compound `CCc1c(C)[nH]c2c1C(=O)C1CN(C)CCC1C2.Cl` (racemic), the ABD50 in the assay on Rattus norvegicus [1] was 0.72 mg/kg. In the assay on Rattus norvegicus [2], this compound displayed an EBD20 of 9.8 mg/kg.

`O=C(CCCN1CCC(O)(c2ccc(Cl)cc2)CC1)c1ccc(F)cc1` [HALOPERIDOL]: the ABD50 in the assay on Rattus norvegicus [1] worked out at 0.35 mg/kg. In the assay with Rattus norvegicus [2], this compound had an EBD20 of 2.7 mg/kg.

`CCc1c(C)[nH]c2c1C(=O)C(CN1CCOCC1)CC2` (centres undefined) [MOLINDONE]: the ABD50 in the assay on Rattus norvegicus [1] was determined as 3.6 mg/kg. In addition, the EBD20 with Rattus norvegicus [2] is 17.1 mg/kg.
